How the values were obtained:
MGC-803 = test: Antiproliferative activity against human MGC-803 cells assessed as reduction in cell viability incubated for 48 hrs by MTT assay; format: functional, cell-based; conditions: Homo sapiens, MGC-803, 48 h
HCT-116 = test: cells; conditions: Homo sapiens, HCT-116, 48 h
KYSE-450 = test: Antiproliferative activity against human KYSE-450 cells assessed as reduction in cell viability incubated for 48 hrs by MTT assay; format: functional, cell-based; conditions: KYSE-450, 48 h

SMILES	IC50 (MGC-803) [nM]	IC50 (HCT-116) [nM]	IC50 (KYSE-450) [nM]
O=C(c1c[nH]c2ccccc12)c1cc(=O)oc2ccccc12	> 20000	> 20000	> 20000
O=c1cc(-n2ccc3cc(O)ccc32)c2ccccc2o1	12900	11900	17900
CCn1ccc2cc(Nc3cc(=O)oc4ccccc34)ccc21	6040	3050	> 20000
CCn1ccc2cc(-c3cc(=O)oc4ccccc34)ccc21	1210	980	840
COc1cc2c(c(OC)c1OC)-c1ccc(OC)c(=O)cc1[C@@H](NC(C)=O)CC2 [COLCHICINE]		108	122
Cn1ccc2ccc(Nc3cc(=O)oc4ccccc34)cc21	1580	2160	5460
COc1ccc2[nH]cc(C(=O)c3cc(=O)oc4ccccc34)c2c1	> 20000	> 20000	> 20000
Cc1ccc2[nH]cc(C(=O)c3cc(=O)oc4ccccc34)c2c1	> 20000	> 20000	> 20000
O=c1cc(-c2ccc3[nH]ccc3c2)c2ccccc2o1	1560	240	2100
O=c1cc(-n2ccc3cc([N+](=O)[O-])ccc32)c2ccccc2o1	> 20000	> 20000	> 20000
O=c1cc(-n2ccc3ccccc32)c2ccccc2o1	> 20000	> 20000	> 20000
COc1ccc2c(c1)c(C=O)cn2-c1cc(=O)oc2ccccc12	> 20000	> 20000	> 20000
O=Cc1ccc2c(ccn2-c2cc(=O)oc3ccccc23)c1	18100	11400	10700
COc1ccc2c(ccn2-c2cc(=O)oc3ccccc23)c1	8140	17400	16100

Continued, in another order:

IC50 (MGC-803) [nM]	IC50 (HCT-116) [nM]	SMILES	IC50 (KYSE-450) [nM]
87	102	CCN(c1ccc2c(ccn2C)c1)c1cc(=O)oc2ccccc12	128
210	6250	O=c1cc(Nc2ccc3c(ccn3Cc3ccccc3)c2)c2ccccc2o1	> 20000
180	180	CC(C)(C)OC(=O)n1cc(-c2cc(=O)oc3ccccc23)c2ccccc21	210
110	270	Cn1ccc2cc(Nc3cc(=O)oc4ccccc34)ccc21	310
20	7490	O=c1cc(Nc2ccc3cc[nH]c3c2)c2ccccc2o1	> 20000
168	514	CN(c1ccc2ccn(C)c2c1)c1cc(=O)oc2ccccc12	472
650	480	O=c1cc(-c2cc3ccccc3[nH]2)c2ccccc2o1	710
260	2660	O=c1cc(Nc2ccc3[nH]ccc3c2)c2ccccc2o1	589
1180	3380	CC(C)(C)OC(=O)n1c(-c2cc(=O)oc3ccccc23)cc2ccccc21	2180
13	27	CCn1ccc2cc(N(C)c3cc(=O)oc4ccccc34)ccc21	58
14	50	CN(c1ccc2[nH]ccc2c1)c1cc(=O)oc2ccccc12	69

From ChEMBL document CHEMBL5137024, “Discovery of novel coumarin-indole derivatives as tubulin polymerization inhibitors with potent anti-gastric cancer activities” (Eur J Med Chem, 2022)
